Consider three substances from article PMC9774438, “Effects of Synthetic Short Cationic Antimicrobial Peptides on the Catalytic Activity of Myeloperoxidase, Reducing Its Oxidative Capacity” (Antioxidants, 2022).

For data set [1], the system named is MPO active site. The following applies: computational docking; ref [31]; cited from earlier work. The source says:
To react with MPO, a peptide residue has to closely approach to the active site. The active site heme group of MPO is located in a crevice (~15 Å in depth) with a channel (~10 Å in diameter) which opens into the distal cavity. Only H2O2 and small anions have ready access to the iron atom. Other compounds that are oxidized by MPO via the peroxidase cycle bind in the binding site at the entrance to the distal cavity. […] Despite concerns rais ...

Data set [2] relates to MPO. The following applies: ref [31]; cited from earlier work. The source says:
The positively charged character of arginine played a key role, since substitu ...

For data set [3], the target named is T1, myeloperoxidase (MPO) (Homo sapiens, UniProt P05164).
T1 construct: Native myeloperoxidase (MPO) was obtained from human leukocyte extract by successive chromatography on heparin-Sepharose and phenyl-agarose; from tissue; host or cells: human leukocyte extract
T1 sequence (P05164 279-745 limits assumed): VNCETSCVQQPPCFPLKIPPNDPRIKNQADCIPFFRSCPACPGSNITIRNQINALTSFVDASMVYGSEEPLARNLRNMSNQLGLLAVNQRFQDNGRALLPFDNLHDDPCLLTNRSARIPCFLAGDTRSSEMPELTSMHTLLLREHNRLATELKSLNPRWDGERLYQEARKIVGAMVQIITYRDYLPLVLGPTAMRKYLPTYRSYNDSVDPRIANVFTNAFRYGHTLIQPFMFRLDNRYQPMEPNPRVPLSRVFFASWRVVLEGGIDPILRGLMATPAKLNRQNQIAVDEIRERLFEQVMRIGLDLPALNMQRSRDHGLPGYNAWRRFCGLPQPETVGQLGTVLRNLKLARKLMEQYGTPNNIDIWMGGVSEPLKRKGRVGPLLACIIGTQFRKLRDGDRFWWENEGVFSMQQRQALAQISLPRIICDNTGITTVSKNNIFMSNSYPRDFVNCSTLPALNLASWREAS
T1 sequence (P05164 165-273 limits assumed): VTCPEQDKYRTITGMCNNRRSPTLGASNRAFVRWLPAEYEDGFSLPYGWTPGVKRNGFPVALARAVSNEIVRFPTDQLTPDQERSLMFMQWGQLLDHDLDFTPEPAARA
Nature of the data set: MPO heme absorbance spectra (Compound II formation and decay, MPO turnover). The following applies: 2 μM MPO heme, 100 μM H2O2, 10 mM Na-phosphate pH 7.4; all concentrations. The class given is biochemical. The procedure:
Native myeloperoxidase (MPO) was obtained from human leukocyte extract by successive chromatography on heparin-Sepharose and phenyl-agarose followed by gel-filtration on a Sephacryl S-200 HR, as previously described. The Reinheit Zahl value (A430 nm/A280 nm) for the purified protein was 0.85. The MPO concentration was determined as the heme concentration measured spectrophotometrically at 430 nm with a molar extinction coefficient of 91,000 M^−1 cm^−1 [35].
Spectra of MPO were recorded on a Cary 50 Bio UV-Vis spectrophotometer (Varian, Mulgrave, Australia). Experiments were performed with Eppendorf UVette plastic UV/Vis cuvettes (Hamburg, Germany). An MPO concentration was 2 μM heme. MPO was mixed with CAMP in 10 mM Na-phosphate buffer (pH 7.4) supplemented with 0.2 mM DTPA. H2O2 was added as a microvolume of concentrated solution (100 μM final).
To elucidate the influence of CAMPs on MPO catalytic activity, we analyzed absorbance spectral changes for MPO activated by H2O2 in the presence of peptides. The spectra were obtained with 2 μM MPO heme and 100 μM H2O2 in 10 mM Na-phosphate buffer, pH 7.4. All reactions in these and further experiments were performed in buffers supplemented with 0.2 mM diethylenetriaminepentaacetic acid (DTPA) to sequester free transition metal ions to prevent tyrosine and cysteine autooxidation.
Figure 2 Time courses of spectral absorbance changes at 430 nm (indicative of MPO ground state) and 455 nm (indicative of Compound II) in the absence and presence of cationic antimicrobial peptides (CAMPs) in the system MPO/H2O2. The name of CAMP is given in parentheses after the panel designation (A–D). H2O2 (100 µM) was added to MPO (2 µM heme) or MPO preincubated with peptides at different peptide/heme molar ratios for 5 min in 10 mM Na-phosphate buffer, pH 7.4. Spectra were taken before and 0.25 min, 5 min, 10 min, and so on after adding H2O2. The initial absorbance values (before H2O2 addition) are shown as a red square marker. […]

The target in data set [4] is T1, myeloperoxidase (MPO). Description: MPO peroxidase activity (Amplex Red assay). The class given is biochemical. The following applies: 0.8–50 μM peptide, 8 nM MPO heme, 50 μM Amplex Red, 25 μM H2O2, 50 mM K-phosphate pH 7.4. Here is the method: MPO peroxidase activity was evaluated fluorometrically using Amplex Red^TM reagent which was oxidized by MPO to the fluorescent resorufin (λex = 530 nm, λem = 590 nm). The assay was performed in 96-plate format. The final reaction mixture in 50 mM K-phosphate buffer (pH 7.4) was as follows: MPO, 8 nM heme; peptide, […]; H2O2, 25 μM; Amplex Red reagent, 50 μM. MPO was preincubated with peptides for 5 min in a volume of 100 μl. Then, Amplex Red was added, and the enzymatic reaction was initiated by adding H2O2 (a final probe volume of 200 μL per well). The fluorescence measurement was made with a CLARIOstar multimodal plate reader (BMG Labtech, Ortenberg, Germany) at 5 min after the beginning of the reaction. To determine the type of CAMP-induced inhibition, KM and Vmax were obtained by varying substrates of MPO: Amplex Red in a final concentration from 1 to 62.5 μM, or H2O2 in a final concentration from 0.625 to 20 μM.
(§1) The Hannes-Wolf plots were made as ([Substrate]/V = f([Substrate]). KM was equal in magnitude to the intercept made on the abscissa axis by the approximating straight line; Vmax was calculated as a reciprocal value of the straight-line slope. The inhibition constant (Ki) for noncompetitive inhibition was calculated as follows: Ki = [I]/((Vmax − Vmax’)/Vmax’); Ki for competitive inhibition was calculated as follows: Ki = [I]/((KM’ − KM)/KM); Ki for mixed inhibition was calculated as follows: Ki = [I]/(((KM’ − KM)/KM)^2 + ((Vmax − Vmax’)/Vmax’))^2)^0.5; and Ki for uncompetitive inhibition was calculated as follows: Ki = [I]/(((KM − KM’)/KM’)^2 + ((Vmax – Vmax’)/Vmax’))^2)^0.5, where [I]—concentration of inhibitor (CAMP), KM—Michaelis constant without inhibitor, Vmax—maximal rate without inhibitor, KM’—Michaelis constant in the presence of inhibitor, Vmax’—maximal rate in the presence of inhibitor.
From the experiments with varying concentrations of H2O2 (0.01–200 μM) and Amplex Red (6.25–100 μM), the optimal concentrations of 25 μM H2O2 and 50 μM Amplex Red were chosen for further work. The 0.8–50 μM concentration range (corresponding to 100–6250 peptide molecules per heme) was used to determine the concentration dependence of the effect of CAMPs on peroxidase activity of MPO.

Data set [5] has as its target T1, myeloperoxidase (MPO). Description: MPO chlorinating activity (Celestine Blue B assay). The class given is biochemical. To be noted: 0.008–8 μM peptide, 0.8 nM MPO heme, 200 μM CB, 150 mM NaCl, 50 μM H2O2, 50 mM Na-acetate pH 5.5. Here is the method:
MPO chlorinating activity was evaluated fluorometrically using Celestine Blue B (CB) which was oxidized to fluorescent glycol (λex = 487 nm, λem = 578 nm) by taurine N-chloramine produced in the reaction of taurine with HOCl generated by MPO [39]. The assay was performed in 96-plate format. MPO was preincubated with peptides for 5 min in a volume of 100 μL, with the concentrations being: MPO, 1.6 nM heme and peptide, 16 nM–16 μM. Then, 100 μL aliquots of CB-containing mix (CB, 400 µM; H2O2, 100 µM; taurine, 4 mM; KI, 10 µM; NaCl, 300 mM; 50 mM Na-acetate buffer, pH 5.5) were added to MPO/peptide and to 100 μL of HOCl standards (0–150 μM). The fluorescence measurement was made with a CLARIOstar multimodal plate reader (BMG Labtech, Ortenberg, Germany) at 15 min after the reaction started. Fluorescence intensity detected for HOCl standards of HOCl was used for calculating the chlorinating activity as mole of HOCl per mole of MPO heme per second. To determine the type of CAMP-induced inhibition, KM and Vmax were obtained by varying substrates of MPO: NaCl in a final concentration from 25 to 300 mM, or H2O2 in a final concentration from 5 to 80 µM.
as §1
Chlorinating activity is a distinctive feature of MPO as compared with other peroxidases and it is an important property, enabling MPO to combat microbes. We tested whether the inhibitory effects of pept_1545 and Hm-AMP8 on peroxidase activity extend to MPO chlorinating activity. Chlorinating activity was measured using a fluorometric CB-based assay. To determine the concentration dependence of the effect of CAMPs on MPO chlorinating activity, the 0.008–8 μM concentration range (corresponding to 10–10,000 peptide molecules per heme) was used.

Data set [6] relates to erythrocytes. To be noted: PBS, 1 h, 37 °C, Triton X-100 = 100%.
Experimental: Comparative evaluation of hemolytic activity of the cationic antimicrobial peptides (CAMPs) Hm-
AMP8, pept_1545, Hm-AMP1, and Hm-AMP2 using a hemolysis assay measuring hemoglobin released from
damaged cells. In each group of bars, the final peptide concentration from left to right is 12.5 μM, 25 μM, 50
μM, and 100 μM. For melittin, the left bar – 0.5 μM, and the right bar – 1 μM. A working erythrocyte suspension
(in PBS) was prepared so that its ten -fold dilution gave an optical density of 0.4 at 800 nm (about 30 × 10^6 cells/mL).
Erythrocytes (125 μL) were added to the same volume of PBS containing the peptide. Cells with PBS served as
negative control; cells with Triton X-100 served as positive control wh ich was set to 100%. After 1-h incubation
(with slight shaking) at 37 °C, the samples were centrifuged at 1000 × g for 10 min , the supernatant was
transferred to the wells of a microplate, and the absorbance of hemoglobin was measured by a Multiskan Ascent
plate reader (Thermo Electron Corporation, Vantaa, Finland), with a test wavelength of 414 nm and a
background wavelength of 690 nm. The hemolysis percentage was calculated using the following equation:
Hemolysis (%) = {(sample absorbance – negative control) / (positive control – negative control)} × 100. Data
shown are mean ± SD from three independent experiments using blood from three healthy volunteers, with […]

Entries after “also recorded” stand apart in the source; their conditions may differ. Read-outs that look alike come from different tables or passages of the source.

Turning to “GRRRRSVQWCA [antimicrobial peptide …, human lactoferrin-derived]”, the “binding to MPO active site (docking)” value in data set [1] is “binding of the peptide GRRRRSVQWCA to the edge of and within the cleft of the active site”. Further, the “inhibition of MPO” value in data set [2] is recorded as “inhibiting MPO activity”.
As for RLKRFKRVALRREKTARNFRSIVS [Hm-AMP1], the “effect on H2O2-induced formation and decay of MPO Compound II / MPO turnover (summary)” value in data set [3] is “no significant effect on MPO cycling”. For the same substance, the “effect on MPO peroxidase activity” value in data set [4] was “no inhibition; also recorded: No effect”. In data set [5], the “effect on MPO chlorinating activity” value is “no significant effect”.
Turning to melittin, the Hemolysis result was “about 40%” in data set [6] (0.5 M (so in the source), three independent experiments) and “complete hemolysis” in data set [6] (1 M (so in the source)).
